Laboratory results as given in patent US11160280B2, “Pesticial compounds” (BASF SE, priority 2017, dated 2021).

Assays:
Type in all cases: in vivo
[1] = tested on: boll weevil (Anthonomus grandis); assay: Action on boll weevil (Anthonomus grandis), eggs on insect diet in microtiter plates; conditions: 120 h, egg and larval mortality after 5 days, read-out: mortality in comparison with untreated controls
Experimental: Example B3: Action on Boll Weevil (Anthonomus grandis)
For evaluating control of boll weevil (Anthonomus grandis) the test unit consisted of 96-well-microtiter plates containing an insect diet and 5-10 A. grandis eggs.
The compounds were formulated using a solution containing 75% v/v water and 25% v/v DMSO. Different concentrations of formulated compounds were sprayed onto the insect diet at 5 μl, using a custom built micro atomizer, at two replications.
After application, microtiter plates were incubated at about 25±1° C. and about 75±5% relative humidity for 5 days. Egg and larval mortality was then visually assessed.

[2] = tested on: tobacco budworm (Heliothis virescens); assay: Action on tobacco budworm (Heliothis virescens), eggs on insect diet in microtiter plates; conditions: 120 h, egg and larval mortality after 5 days, read-out: mortality in comparison with untreated controls
Experimental: Example B5: Action on Tobacco Budworm (Heliothis virescens)
For evaluating control of tobacco budworm (Heliothis virescens) the test unit consisted of 96-well-microtiter plates containing an insect diet and 15-25 H. virescens eggs.
The compounds were formulated using a solution containing 75% v/v water and 25% v/v DMSO. Different concentrations of formulated compounds were sprayed onto the insect diet at 10 μl, using a custom built micro atomizer, at two replications.
After application, microtiter plates were incubated at about 28±1° C. and about 80±5% relative humidity for 5 days. Egg and larval mortality was then visually assessed.

[3] = tested on: Diamond Back Moth (Plutella xylostella); assay: Action on diamond back moth (Plutella xylostella), cabbage leaf dip; conditions: foliar, 3rd instar larvae on dipped cabbage leaves, mortality 72 hours after treatment, read-out: mortality in comparison with untreated controls
Experimental: Example B6: Action on Diamond Back Moth (Plutella xylostella)
The active compound is dissolved at the desired concentration in a mixture of 1:1 (vol:vol) distilled water:acetone. Surfactant (Kinetic® HV) is added at a rate of 0.01% (vol/vol). The test solution is prepared at the day of use.
Leaves of cabbage were dipped in test solution and air-dried. Treated leaves were placed in petri dishes lined with moist filter paper and inoculated with ten 3rd instar larvae. Mortality was recorded 72 hours after treatment. Feeding damages were also recorded using a scale of 0-100%.

[4] = tested on: Southern Armyworm (Spodoptera eridania), 2nd Instar Larvae; assay: Action on southern armyworm (Spodoptera eridania), 2nd instar larvae on sprayed lima bean plants; conditions: 96 h, 2nd instar larvae on lima bean plants, 4 days after treatment, read-out: mortality in comparison with untreated controls
Experimental: Example B7: Action on Southern Armyworm (Spodoptera eridania), 2nd Instar Larvae
The active compounds were formulated by a Tecan liquid handler in 100% cyclohexanone as a 10,000 ppm solution supplied in tubes. The 10,000 ppm solution was serially diluted in 100% cyclohexanone to make interim solutions. These served as stock solutions for which final dilutions were made by the Tecan in 50% acetone:50% water (v/v) into 10 or 20 ml glass vials. A nonionic surfactant (Kinetic®) was included in the solution at a volume of 0.01% (v/v). The vials were then inserted into an automated electrostatic sprayer equipped with an atomizing nozzle for application to plants/insects.
Lima bean plants (variety Sieva) were grown 2 plants to a pot and selected for treatment at the 1st true leaf stage. Test solutions were sprayed onto the foliage by an automated electrostatic plant sprayer equipped with an atomizing spray nozzle. The plants were dried in the sprayer fume hood and then removed from the sprayer. Each pot was placed into perforated plastic bags with a zip closure. About 10 to 11 armyworm larvae were placed into the bag and the bags zipped closed. Test plants were maintained in a growth room at about 25° C. and about 20-40% relative humidity for 4 days, avoiding direct exposure to fluorescent light (24 hour photoperiod) to prevent trapping of heat inside the bags. Mortality and reduced feeding were assessed 4 days after treatment, compared to untreated control plants.

[5] = tested on: yellow fever mosquito (Aedes aegypti); assay: whole plant or invertebrate; conditions: 48 h, larval mortality visually assessed after 2 days, read-out: mortality in comparison with untreated controls
Experimental: Example B1: Action on Yellow Fever Mosquito (Aedes aegypti)
For evaluating control of yellow fever mosquito (Aedes aegypti) the test unit consisted of 96-well-microtiter plates containing 200 μl of tap water per well and 5-15 freshly hatched A. aegypti larvae.
The active compounds were formulated using a solution containing 75% (v/v) water and 25% (v/v) DMSO. Different concentrations of formulated compounds or mixtures were sprayed onto the insect diet at 2.5 μl, using a custom built micro atomizer, at two replications.
After application, microtiter plates were incubated at 28+1° C., 80+5% RH for 2 days. Larval mortality was then visually assessed.

CC(C)c1ccccc1NC(=S)N/N=C/c1ccc2c(COc3ccc(OC(F)(F)F)cc3)nsc2c1 [Example C-22, 1-(2-isopropylphenyl)-3-[(E)-[3-[[4-(trifluoromethoxy)phenoxy]methyl]-1,2-benzothiazol-6-yl]methyleneamino]thiourea]
≥ 75%: mortality at 800 ppm [1] | mortality at 800 ppm [2] | mortality at 500 ppm [3] | mortality at 300 ppm [4]

CC(C)c1ccccc1NC(=S)NN=Cc1cc(F)c2c(C(=O)N(C)c3ccc(OC(F)(F)F)cc3)nn(C)c2c1 [Example C-18, 4-fluoro-6-[[(2-isopropylphenyl)carbamothioylhydrazono]methyl]-N,1-dimethyl-N-[4-(trifluoromethoxy)phenyl]indazole-3-carboxamide]
≥ 75%: mortality at 800 ppm [1] | mortality at 800 ppm [2] | mortality at 500 ppm [3] | mortality at 300 ppm [4]

CC(C)c1ccccc1N1C(=O)CS/C1=N\N=C\c1ccc2c(COc3ccc(OC(F)(F)F)cc3)nsc2c1 [Example C-23, (2Z)-3-(2-isopropylphenyl)-2-[(E)-[3-[[4-(trifluoromethoxy)phenoxy]methyl]-1,2-benzothiazol-6-yl]methylenehydrazono]thiazolidin-4-one]
≥ 75%: mortality at 800 ppm [1] | mortality at 800 ppm [2] | mortality at 500 ppm [3] | mortality at 300 ppm [4]

CC(C)c1ccccc1NC(=S)N/N=C/c1ccc2c(C(=O)Nc3ccc(OC(F)(F)F)cc3)nn(C)c2c1 [Example C-7, 6-[(E)-[(2-isopropylphenyl)carbamothioylhydrazono]methyl]-1-methyl-N-[4-(trifluoromethoxy)phenyl]indazole-3-carboxamide]
≥ 75%: mortality at 800 ppm [5] | mortality at 800 ppm [1] | mortality at 800 ppm [2] | mortality at 500 ppm [3] | mortality at 300 ppm [4]

CC(C)c1ccccc1N1C(=O)CS/C1=N\N=C\c1ccc2c(C(=O)Nc3ccc(OC(F)(F)F)cc3)nn(C)c2c1 [Example C-8, 6-[(E)-[(Z)-[3-(2-isopropylphenyl)-4-oxo-thiazolidin-2-ylidene]hydrazono]methyl]-1-methyl-N-[4-(trifluoromethoxy)phenyl]indazole-3-carboxamide]
≥ 75%: mortality at 800 ppm [5] | mortality at 800 ppm [1] | mortality at 800 ppm [2] | mortality at 500 ppm [3] | mortality at 300 ppm [4]

CC(C)c1ccccc1NC(=S)NN=Cc1cc(F)c2c(C(=O)Nc3ccc(OC(F)(F)F)cc3)nn(C)c2c1 [Example C-17, 4-fluoro-6-[[(2-isopropylphenyl)carbamothioylhydrazono]methyl]—1-methyl-N-[4-(trifluoromethoxy)phenyl]indazole-3-carboxamide]
≥ 75%: mortality at 800 ppm [1] | mortality at 800 ppm [2] | mortality at 300 ppm [4]

CC(C)c1ccccc1NC(=S)N/N=C/c1ccc2c(COc3ccc(OC(F)(F)F)cc3)noc2c1 [Example C-24, 1-(2-isopropylphenyl)-3-[(E)-[3-[[4-(trifluoromethoxy)phenoxy]methyl]-1,2-benzoxazol-6-yl]methyleneamino]thiourea]
≥ 75%: mortality at 800 ppm [1] | mortality at 800 ppm [2] | mortality at 500 ppm [3]

CO[C@@H]1[C@@H](OC)[C@H](C)O[C@@H](OC(=O)Nc2ccc3c(NC(=O)c4ccc(OC(F)(F)F)cc4)nn(C)c3c2)[C@@H]1OC [Example C-5, [(2S,3R,4R,5S,6S)-3,4,5-trimethoxy-6-methyl-tetrahydropyran-2-yl] N-[1-methyl-3-[[4-(trifluoromethoxy)benzoyl]amino]indazol-6-yl]carbamate]
≥ 75%: mortality at 800 ppm [5] | mortality at 800 ppm [1]

CC(C)c1ccccc1N1C(=O)CS/C1=N\N=C\c1ccc2c(COc3ccc(OC(F)(F)F)cc3)noc2c1 [Example C-25, (2Z)-3-(2-isopropylphenyl)-2-[(E)-[3-[[4-(trifluoromethoxy)phenoxy]methyl]-1,2-benzoxazol-6-yl]methylenehydrazono]thiazolidin-4-one]
≥ 75%: mortality at 800 ppm [5] | mortality at 800 ppm [1] | mortality at 800 ppm [2] | mortality at 500 ppm [3]
